Measurements: PubChem BioAssay AID212 (DTP/NCI, 2004)
“And” between values parts separate entries of the source, which are not always exact repeats. Identical values can stand only once. Results filed as inconclusive are left out. Where a SMILES comes first, the peptide text is derived from it. Bridges are numbered along the chain shown (N, C = ends).

System: BDF1 mice, colon carcinoma 38 sc, T/C %
Experiment: NCI In Vivo Anticancer Drug Screen. Data for tumor model Colon Carcinoma 38 (subcutaneous) in B6D2F1 (BDF1) mice
Details: endpoint: median tumor weight (est.), higher = larger tumour
Procedure, shortened: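 Compound antitumor activity was assessed in mice carrying transplantable tumors. Survival or tumor size was recorded, and each value is the treated-group measurement divided by that of the vehicle-treated control group.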

Question: What does the source list for `CCOC(=O)NC1=C(N2CC2)C(=O)C(NC(=O)OCC)=C(N2CC2)C1=O`?
Answer: T/C (dose: 0.78 mg/kg/injection, schedule: Q07DX002 (ip), vehicle: saline): 98 % of control; T/C (dose: 0.78 mg/kg/injection, schedule: Q07DX002 (ip), vehicle: suspension in saline): 102 % of control; T/C (dose: 1.56 mg/kg/injection, schedule: Q07DX002 (ip), vehicle: saline): 94 % of control; T/C (dose: 1.56 mg/kg/injection, schedule: Q07DX002 (ip), vehicle: suspension in saline): 95 % of control; T/C (dose: 3.13 mg/kg/injection, schedule: Q07DX002 (ip), vehicle: suspension in saline): 95 % of control; T/C (dose: 6.25 mg/kg/injection, schedule: Q07DX002 (ip), vehicle: saline): 77 % of control; T/C (dose: 6.25 mg/kg/injection, schedule: Q07DX002 (ip), vehicle: suspension in saline): 85 % of control; T/C (dose: 12.5 mg/kg/injection, schedule: Q07DX002 (ip), vehicle: saline): 69 % of control; T/C (dose: 25.0 mg/kg/injection, schedule: Q07DX002 (ip), vehicle: saline): 12 % of control; T/C (dose: 25.0 mg/kg/injection, schedule: Q07DX003 (ip), vehicle: saline): 32 % of control

Question: What does the source list for `C[C@]12CCC(=O)C=C1CC[C@@H]1[C@@H]2C(=O)C[C@@]2(C)[C@H]1CC[C@]2(O)C(=O)CO`?
Answer: T/C (dose: 40.0 mg/kg/injection, schedule: Q07DX003 (ip), vehicle: Klucel (hydroxypropylcellulose) (HPC)): 74 % of control; T/C (dose: 50.0 mg/kg/injection, schedule: Q07DX002 (ip), vehicle: Klucel (hydroxypropylcellulose) (HPC)): 117 % of control; T/C (dose: 80.0 mg/kg/injection, schedule: Q07DX003 (ip), vehicle: Klucel (hydroxypropylcellulose) (HPC)): 88 % of control; T/C (dose: 100.0 mg/kg/injection, schedule: Q07DX002 (ip), vehicle: Klucel (hydroxypropylcellulose) (HPC)): 69 % of control; T/C (dose: 160.0 mg/kg/injection, schedule: Q07DX003 (ip), vehicle: Klucel (hydroxypropylcellulose) (HPC)): 66 % of control; T/C (dose: 200.0 mg/kg/injection, schedule: Q07DX002 (ip), vehicle: Klucel (hydroxypropylcellulose) (HPC)): 45 % of control; T/C (dose: 320.0 mg/kg/injection, schedule: Q07DX003 (ip), vehicle: Klucel (hydroxypropylcellulose) (HPC)): 74 % of control; T/C (dose: 400.0 mg/kg/injection, schedule: Q07DX002 (ip), vehicle: Klucel (hydroxypropylcellulose) (HPC)): 53 % of control; T/C (dose: 640.0 mg/kg/injection, schedule: Q07DX003 (ip), vehicle: Klucel (hydroxypropylcellulose) (HPC)): 47 % of control; T/C (dose: 800.0 mg/kg/injection, schedule: Q07DX002 (ip), vehicle: Klucel (hydroxypropylcellulose) (HPC)): 66 % of control; T/C (dose: 1200.0 mg/kg/injection, schedule: Q07DX002 (ip), vehicle: Klucel (hydroxypropylcellulose) (HPC)): 67 % of control

Question: With `CC(=O)OC1C2OC3C=C(C)CCC3(CO)C(C)(C1O)C21CO1` (stereo not drawn) as the compound, how does the T/C (dose: 1.0 mg/kg/injection, schedule: Q07DX002 (ip), vehicle: saline) read?
Answer: 80 % of control

Question: How did the T/C (dose: 12.5 mg/kg/injection, schedule: Q07DX003 (ip), vehicle: saline with Tween-80) turn out when `CCOC(C)C(/C=N/NC(N)=S)=NNC(N)=S` (stereo not drawn) was run?
Answer: 111 % of control

Question: What about the T/C (dose: 25.0 mg/kg/injection, schedule: Q07DX003 (ip), vehicle: saline with Tween-80) of the same compound?
Answer: 61 % of control

Question: And the T/C (dose: 50.0 mg/kg/injection, schedule: Q07DX003 (ip), vehicle: saline with Tween-80)?
Answer: 99 % of control

Question: And the T/C (dose: 100.0 mg/kg/injection, schedule: Q07DX003 (ip), vehicle: saline with Tween-80)?
Answer: 155 % of control

Question: What about the T/C (dose: 200.0 mg/kg/injection, schedule: Q07DX003 (ip), vehicle: saline with Tween-80) of the same compound?
Answer: 73 % of control

Question: What about the T/C (dose: 400.0 mg/kg/injection, schedule: Q07DX003 (ip), vehicle: saline with Tween-80) of the same compound?
Answer: 66 % of control

Question: For `CCC1=C[C@H]2CN(CCc3c([nH]c4ccccc34)[C@@](C(=O)OC)(c3cc4c(cc3OC)N(C)[C@H]3[C@@](O)(C(=O)OC)[C@H](OC(C)=O)[C@]5(CC)C=CCN6CC[C@]43[C@@H]65)C2)C1`, which T/C (dose: 4.0 mg/kg/injection, schedule: Q07DX002 (ip), vehicle: water) is on record?
Answer: 75 % of control and 82 % of control

Question: For `O=C(O)CC(NC(=O)CP(=O)(O)O)C(=O)O` (stereo not drawn), which T/C (dose: 50.0 mg/kg/injection, schedule: Q07DX003 (ip), vehicle: saline) is on record?
Answer: 95 % of control

Question: What about the T/C (dose: 51.8 mg/kg/injection, schedule: Q01DX004 (ip), vehicle: saline) of the same compound?
Answer: 102 % of control

Question: And the T/C (dose: 86.4 mg/kg/injection, schedule: Q01DX004 (ip), vehicle: saline)?
Answer: 75 % of control

Question: What about the T/C (dose: 119.0 mg/kg/injection, schedule: Q01DX009 (ip), vehicle: saline) of the same compound?
Answer: 34 % of control

Question: What about the T/C (dose: 144.0 mg/kg/injection, schedule: Q01DX004 (ip), vehicle: saline) of the same compound?
Answer: 12 % of control

Question: What about the T/C (dose: 178.0 mg/kg/injection, schedule: Q01DX009 (ip), vehicle: saline) of the same compound?
Answer: 12 % of control

Question: And the T/C (dose: 180.0 mg/kg/injection, schedule: Q04DX004 (ip), vehicle: saline)?
Answer: 79 % of control

Question: And the T/C (dose: 200.0 mg/kg/injection, schedule: Q07DX003 (ip), vehicle: saline)?
Answer: 115 % of control

Question: And the T/C (dose: 240.0 mg/kg/injection, schedule: Q01DX004 (ip), vehicle: saline)?
Answer: 9 % of control

Question: What about the T/C (dose: 300.0 mg/kg/injection, schedule: Q04DX004 (ip), vehicle: saline) of the same compound?
Answer: 75 % of control

Question: And the T/C (dose: 370.0 mg/kg/injection, schedule: Q07DX003 (ip), vehicle: saline)?
Answer: 70 % of control

Question: And the T/C (dose: 400.0 mg/kg/injection, schedule: Q07DX003 (ip), vehicle: saline)?
Answer: 75 % of control

Question: And the T/C (dose: 500.0 mg/kg/injection, schedule: Q04DX004 (ip), vehicle: saline)?
Answer: 58 % of control

Question: And the T/C (dose: 552.0 mg/kg/injection, schedule: Q07DX003 (ip), vehicle: saline)?
Answer: 40 % of control

Question: And the T/C (dose: 800.0 mg/kg/injection, schedule: Q07DX003 (ip), vehicle: saline)?
Answer: 21 % of control

Question: Which T/C (dose: 600.0 mg/kg/injection, schedule: Q07DX002 (ip), vehicle: suspension in saline) does the source give for `O=CCC(O)C(O)C(O)CO` (stereo not drawn) here?
Answer: 108 % of control

Question: What about the T/C (dose: 1800.0 mg/kg/injection, schedule: Q07DX002 (ip), vehicle: suspension in saline) of the same compound?
Answer: 96 % of control

Question: What about the T/C (dose: 2400.0 mg/kg/injection, schedule: Q07DX002 (ip), vehicle: suspension in saline) of the same compound?
Answer: 102 % of control

Question: What about the T/C (dose: 3600.0 mg/kg/injection, schedule: Q07DX002 (ip), vehicle: suspension in saline) of the same compound?
Answer: 74 % of control

Question: With `Nc1ccc(S(N)(=O)=O)cc1` as the compound, how does the T/C (dose: 100.0 mg/kg/injection, schedule: Q07DX002 (ip), vehicle: saline with Tween-80) read?
Answer: 103 % of control

Question: What about the T/C (dose: 112.0 mg/kg/injection, schedule: Q07DX002 (ip), vehicle: saline with Tween-80) of the same compound?
Answer: 82 % of control and 100 % of control

Question: And the T/C (dose: 400.0 mg/kg/injection, schedule: Q07DX002 (ip), vehicle: saline with Tween-80)?
Answer: 122 % of control

Question: And the T/C (dose: 800.0 mg/kg/injection, schedule: Q07DX002 (ip), vehicle: saline with Tween-80)?
Answer: 76 % of control

Question: What about the T/C (dose: 1600.0 mg/kg/injection, schedule: Q07DX002 (ip), vehicle: saline with Tween-80) of the same compound?
Answer: 101 % of control

Question: What about the T/C (dose: 1800.0 mg/kg/injection, schedule: Q07DX002 (ip), vehicle: saline with Tween-80) of the same compound?
Answer: 80 % of control and 84 % of control

Question: How did the T/C (dose: 128.12 micrograms/kg/injection, schedule: Q07DX002 (ip), vehicle: Klucel (hydroxypropylcellulose) (HPC)) turn out when `CCC(C)C1NC(=O)C(CC(C)C)NC(=O)C(C(C)C)NC(=O)C2CSSCC(NC1=O)C(=O)N2` (stereo not drawn) (cyclo(CCVLI); disulfide 1-2; configuration not given here) was run?
Answer: 160 % of control

Question: What about the T/C (dose: 256.25 micrograms/kg/injection, schedule: Q07DX002 (ip), vehicle: Klucel (hydroxypropylcellulose) (HPC)) of the same compound?
Answer: 118 % of control

Question: With `COC1C(OC(=O)/C=C/C=C/C=C/C=C/C(=O)O)CCC2(CO2)C1C1(C)OC1CC=C(C)C` (stereo not drawn) as the compound, how does the T/C (dose: 25.0 mg/kg/injection, schedule: Q07DX002 (ip), vehicle: suspension in saline) read?
Answer: 101 % of control

Question: And the T/C (dose: 50.0 mg/kg/injection, schedule: Q07DX002 (ip), vehicle: suspension in saline)?
Answer: 208 % of control

Question: And the T/C (dose: 200.0 mg/kg/injection, schedule: Q07DX002 (ip), vehicle: suspension in saline)?
Answer: 115 % of control

Question: For `C[C@H](N)C(=O)N[C@@H]1[C@H]2C(=C(O)C[C@@H](O)[C@@H]2O)C(=O)O[C@]1(C)C(Cl)Cl`, which T/C (dose: 0.37 mg/kg/injection, schedule: Q07DX002 (ip), vehicle: Klucel (hydroxypropylcellulose) (HPC)) is on record?
Answer: 97 % of control

Question: And the T/C (dose: 0.38 mg/kg/injection, schedule: Q07DX002 (ip), vehicle: Klucel (hydroxypropylcellulose) (HPC))?
Answer: 75 % of control

Question: What about the T/C (dose: 3.0 mg/kg/injection, schedule: Q07DX002 (ip), vehicle: Klucel (hydroxypropylcellulose) (HPC)) of the same compound?
Answer: 53 % of control and 59 % of control

Question: And the T/C (dose: 6.0 mg/kg/injection, schedule: Q07DX002 (ip), vehicle: Klucel (hydroxypropylcellulose) (HPC))?
Answer: 30 % of control and 40 % of control

Question: For `COC(C(=O)C(O)C(C)O)C1CC2C=C3C=C(OC4CC(OC5CC(O)C(OC)C(C)O5)C(OC(C)=O)C(C)O4)C(C)C(=O)C3=C(O)C2=C(O)C1OC1CC(OC2CC(OC3CC(C)(O)C(O)C(C)O3)C(O)C(C)O2)C(O)C(C)O1` (stereo not drawn), which T/C (dose: 1.0 mg/kg/injection, schedule: Q07DX002 (ip), vehicle: saline with Tween-80) is on record?
Answer: 121 % of control

Question: And the T/C (dose: 2.0 mg/kg/injection, schedule: Q07DX002 (ip), vehicle: saline with Tween-80)?
Answer: 150 % of control

Question: What about the T/C (dose: 4.0 mg/kg/injection, schedule: Q07DX002 (ip), vehicle: saline with Tween-80) of the same compound?
Answer: 112 % of control

Question: What about the T/C (dose: 8.0 mg/kg/injection, schedule: Q07DX002 (ip), vehicle: saline with Tween-80) of the same compound?
Answer: 114 % of control

Question: And the T/C (dose: 16.0 mg/kg/injection, schedule: Q07DX002 (ip), vehicle: saline with Tween-80)?
Answer: 111 % of control
